Measurements from patent US20210181109A1 (FUJIFILM Corporation, priority 2018, published 2021).
Like-named read-outs stand apart in the source and are kept apart here.

How the values were obtained:
[1] = NAL depletion percent, HPLC-UV detection (281 nm); details: Reference (UV method)
How it was run: (§1)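 NAL (5 μmol/L, pH 10.2 phosphate buffer) reacted with test substance (1 mmol/L stock in water, acetonitrile, acetone or 5% DMSO/acetonitrile) for 24 h at 25 °C in the dark; stopped with TFA to 0.5%. Unreacted NAL quantified by HPLC (UV or fluorescence), n=3; depletion % relative to substance-free blank.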

[2] = Average score of NAC and NAL depletion and prediction of skin allergenicity, fluorescence method
How it was run: (§2)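 Score is the mean of NAC and NAL depletion percentages, rounded at the second decimal place. Test substances classed as allergenic (S) or non-allergenic (NS) from depletion of NAC, NAL, or their average score.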

[3] = NAC depletion percent, HPLC-UV detection (281 nm); details: Reference (UV method)
How it was run: (§3)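 NAC at 5 μmol/L in pH 8.0 phosphate buffer reacted with test substance (1 mmol/L stock in water, acetonitrile, acetone or 5% DMSO/acetonitrile) 24 h at 25 °C in the dark, n=3. Stopped with TFA (0.5% final); unreacted NAC quantified by HPLC, depletion percent calculated against blank without test substance.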

[4] = NAL depletion percent, HPLC-fluorescence detection
How it was run: as §1

[5] = Average score of NAC and NAL depletion and prediction of skin allergenicity, UV method
How it was run: as §2

[6] = NAC depletion percent, HPLC-fluorescence detection
How it was run: as §3

[7] = cited from earlier work
[8] = single substance, test substance solution 1 mmol/L
[9] = single substance, fluorescence method, criterion average score […]
[10] = single substance, test substance solution 1 mmol/L, fluorescence method
[11] = single substance, Reference (UV method), criterion average score […]
[12] = single substance, test substance solution 1 mmol/L, Reference (UV method)
[13] = known values, LLNA-test-based classification, − for non-allergenic substances
[14] = Fluorescence method, non-allergenic substance

SMILES: O=c1c(-c2ccccc2)c1-c1ccccc1 [Diphenylcyclopropenone]
- NAL depletion (%) [1, 8]: 6.3%
- Prediction result [2, 9]: S (S represents as being an allergenic substance)
- Average score [2, 10]: 16.0%
- NAC depletion (%) [3, 8]: 28.7%
- NAL depletion (%) [4, 10]: 2.4%
- Prediction result [5, 11]: S (S represents as being an allergenic substance)
- Average score [5, 12]: 17.5%
- NAC depletion (%) [6, 10]: 29.7%
- EC3 (%) [7, 13]: 0.0003%

SMILES: C=CC(=O)OCC [Ethyl acrylate]
- NAL depletion (%) [1, 8]: 13.7%
- Prediction result [2, 9]: S (S represents as being an allergenic substance)
- Average score [2, 10]: 49.6%
- NAC depletion (%) [3, 8]: 87.8%
- NAL depletion (%) [4, 10]: 10.6%
- Prediction result [5, 11]: S (S represents as being an allergenic substance)
- Average score [5, 12]: 50.8%
- NAC depletion (%) [6, 10]: 88.7%
- EC3 (%) ([7]; in vivo): 28%

SMILES: C=C(C)C(=O)OCCOC(=O)C(=C)C [Ethylene glycol dimethacrylate]
- NAL depletion (%) [1, 8]: 2.6%
- Prediction result [2, 9]: NS (NS represents as being a non-allergenic substance)
- Average score [2, 10]: 4.4%
- NAC depletion (%) [3, 8]: 5.9%
- NAL depletion (%) [4, 10]: 1.5%
- Prediction result [5, 11]: NS (NS represents as being a non-allergenic substance)
- Average score [5, 12]: 4.3%
- NAC depletion (%) [6, 10]: 7.3%
- EC3 (%) [7, 13]: 28%

SMILES: O=CCCCC=O [Glutaraldehyde]
- NAL depletion (%) [1, 8]: 53.1%
- Prediction result [2, 9]: S (S represents as being an allergenic substance)
- Average score [2, 10]: 23.7%
- NAC depletion (%) [3, 8]: 0.8%
- NAL depletion (%) [4, 10]: 47.4%
- Prediction result [5, 11]: S (S represents as being an allergenic substance)
- Average score [5, 12]: 26.9%
- NAC depletion (%) [6, 10]: 0.0%
- EC3 (%) [7, 13]: 0.1%

SMILES: O=CC=O [Glyoxal]
- NAL depletion (%) [1, 8]: 0.8%
- Prediction result [2]: S (key: S represents as being an allergenic substance; NS represents as being a non-allergenic substance)
- Average score [2, 10]: 12.7%
- NAC depletion (%) [3, 8]: 12.8%
- NAL depletion (%) [4, 10]: 0.4%
- Prediction result [5]: S (key: S represents as being an allergenic substance; NS represents as being a non-allergenic substance)
- Average score [5, 12]: 6.8%
- NAC depletion (%) [6, 10]: 24.9%
- EC3 (%) ([7]; in vivo): 1.4%

SMILES: CC(CC=O)CCCC(C)(C)O (stereo not shown) [Hydroxycitronellal]
- NAL depletion (%) [1, 8]: 1.5%
- Prediction result [2, 9]: S (S represents as being an allergenic substance)
- Average score [2, 10]: 8.0%
- NAC depletion (%) [3, 8]: 17.5%
- NAL depletion (%) [4, 10]: 0.0%
- Prediction result [5, 11]: S (S represents as being an allergenic substance)
- Average score [5, 12]: 9.5%
- NAC depletion (%) [6, 10]: 16.0%
- EC3 (%) [7, 13]: 33%

SMILES: CCCCCCCCCCCCOC(=O)c1cc(O)c(O)c(O)c1 [Lauryl gallate]
- NAL depletion (%) [1, 8]: 19.0%
- Prediction result [2, 9]: S (S represents as being an allergenic substance)
- Average score [2, 10]: 57.7%
- NAC depletion (%) [3, 8]: 100.0%
- NAL depletion (%) [4, 10]: 15.9%
- Prediction result [5, 11]: S (S represents as being an allergenic substance)
- Average score [5, 12]: 59.5%
- NAC depletion (%) [6, 10]: 99.5%
- EC3 (%) [7, 13]: 0.3%

SMILES: CCCCCCC#CC(=O)OC [Methyl 2-nonynoate]
- NAL depletion (%) [1, 8]: 1.4%
- Prediction result [2, 9]: S (S represents as being an allergenic substance)
- Average score [2, 10]: 7.8%
- NAC depletion (%) [3, 8]: 15.0%
- NAL depletion (%) [4, 10]: 3.2%
- Prediction result [5, 11]: S (S represents as being an allergenic substance)
- Average score [5, 12]: 8.2%
- NAC depletion (%) [6, 10]: 12.4%
- EC3 (%) [7, 13]: 2.5%

SMILES: CNc1ccc(O)cc1.CNc1ccc(O)cc1.O=S(=O)(O)O [Metol]
- NAL depletion (%) [1, 8]: 22.8%
- Prediction result [2, 9]: S (S represents as being an allergenic substance)
- Average score [2, 10]: 57.9%
- NAC depletion (%) [3, 8]: 100.0%
- NAL depletion (%) [4, 10]: 15.9%
- Prediction result [5, 11]: S (S represents as being an allergenic substance)
- Average score [5, 12]: 61.4%
- NAC depletion (%) [6, 10]: 100.0%
- EC3 (%) [7, 13]: 0.8%

SMILES: CCCCCCCCC(=O)O [Nonanoic acid]
- NAL depletion (%) ([1]; non-allergenic substance): 1.3%
- Prediction result ([2]; Fluorescence method, skin allergenicity prediction): NS (NS represents as being a non-allergenic substance)
- NAC depletion (%) ([3]; non-allergenic substance): 0.0%
- NAL depletion (%) [4, 14]: 0.0%
- Prediction result ([5]; Reference (UV method), skin allergenicity prediction): NS (NS represents as being a non-allergenic substance)
- NAC depletion (%) [6, 14]: 0.0%
- EC3 (%) [7, 13]: 21%

SMILES: CCCCCCCCC(=O)Cl [Nonanoyl chloride]
- NAL depletion (%) [1, 8]: 39.4%
- Prediction result [2, 9]: S (S represents as being an allergenic substance)
- Average score [2, 10]: 31.7%
- NAC depletion (%) [3, 8]: 7.4%
- NAL depletion (%) [4, 10]: 54.5%
- Prediction result [5, 11]: S (S represents as being an allergenic substance)
- Average score [5, 12]: 23.4%
- NAC depletion (%) [6, 10]: 8.9%
- EC3 (%) [7, 13]: 1.8%

SMILES: CCO/C=C1\N=C(c2ccccc2)OC1=O [Oxazolone]
- NAL depletion (%) [1, 8]: 80.1%
- Average score [2]: 78.8%
- Prediction result [2]: S (key: S represents as being an allergenic substance; NS represents as being a non-allergenic substance)
- NAC depletion (%) [3, 8]: 85.3%
- NAL depletion (%) [4, 10]: 65.5%
- Average score [5]: 82.7%
- Prediction result [5]: S (key: S represents as being an allergenic substance; NS represents as being a non-allergenic substance)
- NAC depletion (%) [6, 10]: 92.0%
- EC3 (%) ([7]; in vivo): 0.003%

SMILES: CCCCCCCCCCCCCCCC(=O)Cl [Palmitoyl chloride]
- NAL depletion (%) [1, 8]: 95.9%
- Prediction result [2, 9]: S (S represents as being an allergenic substance)
- Average score [2, 10]: 54.9%
- NAC depletion (%) [3, 8]: 5.8%
- NAL depletion (%) [4, 10]: 98.3%
- Prediction result [5, 11]: S (S represents as being an allergenic substance)
- Average score [5, 12]: 50.8%
- NAC depletion (%) [6, 10]: 11.5%
- EC3 (%) [7, 13]: 8.8%

SMILES: C=C(C)C1CC=C(C=O)CC1 (stereo not shown) [Perillaldehyde]
- NAL depletion (%) [1, 8]: 18.5%
- Prediction result [2, 9]: S (S represents as being an allergenic substance)
- Average score [2, 10]: 24.7%
- NAC depletion (%) [3, 8]: 29.1%
- NAL depletion (%) [4, 10]: 7.1%
- Prediction result [5, 11]: S (S represents as being an allergenic substance)
- Average score [5, 12]: 23.8%
- NAC depletion (%) [6, 10]: 42.4%
- EC3 (%) [7, 13]: 8.1%

SMILES: O=CCc1ccccc1 [Phenylacetaldehyde]
- NAL depletion (%) [1, 8]: 98.3%
- Prediction result [2, 9]: S (S represents as being an allergenic substance)
- Average score [2, 10]: 52.9%
- NAC depletion (%) [3, 8]: 22.4%
- NAL depletion (%) [4, 10]: 96.2%
- Prediction result [5, 11]: S (S represents as being an allergenic substance)
- Average score [5, 12]: 60.3%
- NAC depletion (%) [6, 10]: 9.5%
- EC3 (%) [7, 13]: 3%

SMILES: O=C1OC(=O)c2ccccc21 [Phthalic anhydride]
- NAL depletion (%) [1, 8]: 96.9%
- Prediction result [2, 9]: S (S represents as being an allergenic substance)
- Average score [2, 10]: 46.4%
- NAC depletion (%) [3, 8]: 0.3%
- NAL depletion (%) [4, 10]: 92.6%
- Prediction result [5, 11]: S (S represents as being an allergenic substance)
- Average score [5, 12]: 48.6%
- NAC depletion (%) [6, 10]: 0.3%
- EC3 (%) [7, 13]: 0.16%
